Assay results published in PubChem BioAssay (NCI).
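96-well plates; 48 h exposure; 5 concentrations. Endpoints by linear interpolation between flanking doses. Not reached: highest tested concentration assigned. At the GI50, growth is halved. At the TGI there is no net growth.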

What was measured:
Assay in all cases: growth of human tumour cells (NCI), 48 h
U251 CNS = tested on: U251 CNS
T-47D breast = tested on: T-47D breast
UACC-257 melanoma = tested on: UACC-257 melanoma
HCT-15 colon = tested on: HCT-15 colon
M14 melanoma = tested on: M14 melanoma
OVCAR-8 ovarian = tested on: OVCAR-8 ovarian
SNB-19 CNS = tested on: SNB-19 CNS
RXF 393 renal = tested on: RXF 393 renal
MDA-MB-231 breast = tested on: MDA-MB-231 breast
HCC-2998 colon = tested on: HCC-2998 colon

Row | SMILES | GI50 (U251 CNS) [µM] | TGI (U251 CNS) [µM] | GI50 (T-47D breast) [µM] | TGI (T-47D breast) [µM] | GI50 (UACC-257 melanoma) [µM] | TGI (UACC-257 melanoma) [µM] | GI50 (HCT-15 colon) [µM] | TGI (HCT-15 colon) [µM] | GI50 (M14 melanoma) [µM] | TGI (M14 melanoma) [µM] | GI50 (OVCAR-8 ovarian) [µM] | TGI (OVCAR-8 ovarian) [µM] | GI50 (SNB-19 CNS) [µM] | TGI (SNB-19 CNS) [µM] | GI50 (RXF 393 renal) [µM] | TGI (RXF 393 renal) [µM] | GI50 (MDA-MB-231 breast) [µM] | TGI (MDA-MB-231 breast) [µM] | GI50 (HCC-2998 colon) [µM] | TGI (HCC-2998 colon) [µM]
1 | Nc1nc2c(c3ncncc13)C(c1cccc(C(F)(F)F)c1)Cc1ncncc1-2 (stereo not drawn) | 3.69 | 13.6 | 4.15 | 82.9 | 9.56 | 62.1 | 3.57 | > 100 | 2.97 | 10 | 8.08 | > 100 | 4.88 | 33.2 | 2.96 | 8.81 | 11.1 | 31.3 | 11.2 | 48.7
2 | CC1OC(O[C@@H]2OC=C(C=O)[C@@]3(O)CC[C@H](C)[C@@H]23)C(O)C(O)C1O (stereo partly drawn) |  | > 100 |  | > 100 |  | > 100 |  | > 100 |  | > 100 |  | > 100 |  | > 100 |  | > 100 |  | > 100 |  | > 100
3 | O=C(/C=C/c1ccccc1)c1cc(Br)ccc1O |  | 29.9 |  | 25.5 |  | 27.9 |  | 34.9 |  | 52.9 |  | 30.4 |  | 35.8 |  | 37.4 |  | 42.5 |  | 32.2
4 | CC#C[C@]1(O)CC[C@H]2[C@@H]3CCC4=CC(=O)CCC4=C3[C@@H](c3ccc4c(c3)OCO4)C[C@@]21C | 108 | 410 | 45.6 | 577 | 119 | 410 | 45.4 | 780 | 31 | 154 | 141 | 783 | 174 | > 1000 | 43.8 | 197 | 90.1 | 327 | 174 | 572
5 | Nc1ccccc1C#C/C=C\C#Cc1cccs1 | 8.34 | 27.5 | 17.4 | 48.2 | 23.2 | > 57.8 | 9.45 | 43.7 | 10.5 | 30.9 | 25 | > 83.4 | 43.5 | > 100 | 33.8 | > 83.9 |  | 4.47 | 4.17 | 19.3
6 | O=C1c2cccnc2C(=O)c2nc3cc(N4CCN(C5CC5)CC4)ccc3nc21 | 0.383 | 2.02 | 2.16 | 6.34 | 0.479 | 1.98 | 0.257 | 1.28 | 0.301 | 1.18 | 1.68 | 11.2 | 0.465 | 3.63 | 0.607 | 2.61 | 2.15 | 8.08 | 0.49 | 1.83
7 | COC(=O)[C@H](C[C@H](Cc1ccccc1)NC(=O)c1csc([C@@H](C[C@H](C(C)C)N(C)C(=O)[C@@H](NC(=O)[C@H]2CCCCN2C)C(C)C)OC(C)=O)n1)NC(=O)OCc1ccccc1 | < 0.0009 | > 9 | < 0.0009 | > 9 | 0.0349 | 2.78 | 0.00401 | > 9 | < 0.0009 | 0.365 | < 0.0009 | > 9 | < 0.0009 | > 9 | < 0.0009 | > 9 | 0.00108 | > 4.9 | < 0.0009 | > 5.64
8 | CC(C)c1cc(-c2n[nH]c(=O)n2-c2ccc3c(ccn3C)c2)c(O)cc1O | < 0.0257 | 18 | < 0.0287 | 34.5 | < 0.0195 | 30.6 | < 0.02 | > 47.7 | < 0.0198 | 21.1 | < 0.0232 | > 83.7 | < 0.0236 | > 48.5 | < 0.0304 | 21.5 | < 0.023 | 7.52 | 0.0256 | 2.77
9 | O=C(O)/C=C\C(=O)N1C/C(=C\c2ccccc2Cl)C(=O)/C(=C/c2ccccc2Cl)C1 | 0.472 | 1.88 | 4.48 | 16.2 | 6.44 | 20.4 | 2.3 | 6.44 | 3.1 | 10.6 | 3.88 | 17 | 1.98 | 5.34 | 1.84 | 3.36 | 3.52 | 11.5 | 2.06 | 3.87
10 | COC(=O)[C@@]1(C)CC[C@]2(C)CC[C@]3(C)C4=CC=C5C(=CC(=O)C(O)=C5C)[C@]4(C)[C@@H](O)C[C@@]3(C)[C@@H]2C1 | 8.71 | 18.7 | 3.04 | 15.9 | 10.1 | 24.3 | 5.07 | 17.7 | 9.74 | 22.2 | 14.8 | 28.4 | 12.4 | 23.8 | 11.3 | 22.9 | 10.2 | 21.8 | 13 | 25.2
11 | CN(C)CCCNC(CC#N)CCC#N (stereo not drawn) |  | > 10 |  | > 10 |  | > 10 |  | > 10 |  | > 10 |  | > 10 |  | > 10 |  | > 10 |  | > 10 |  | > 10
12 | COc1ccc2c(c1)cn1c3ccc(O)cc3nc(N)c21 | 0.0547 | 4.11 | 2.34 | 10.4 | 0.0793 | 1 | 0.0585 | 5.99 | 0.0798 | 4.98 | 0.375 | 4.92 | 0.357 | 25 | 0.0852 | 2.66 | 0.957 | 5.56 | 0.626 | 5.24
13 | Cc1ccc(-c2cn3ccnc3c(-c3ccc(Cl)cc3)n2)cc1 | 0.786 | 18.1 | 8.12 | > 58.5 |  | > 100 | 1.23 | > 35.6 | 0.416 | > 36.3 | 1.43 | 34.2 | 1.39 | > 65.4 | 2.16 | > 100 | 0.506 | 50.1 | 2.13 | 11.4
